Results reported in ChEMBL document CHEMBL1128943, “Small peptidic aldehyde inhibitors of human rhinovirus 3C protease” (Bioorg Med Chem Lett, 1996).
Where a SMILES comes first, the peptide text is derived from it. [ ]: non-standard residue; d: D form. The star is where a group is joined. Met(O2) = CS(=O)(=O)CC[C@H](N)C(=O)O; hPhe = N[C@@H](CCc1ccccc1)C(=O)O; Cbz = O=C(OCc1ccccc1)*; Boc = CC(C)(C)OC(=O)*

Legend:
HeLa = test: Cytotoxic activity against HeLa cells using XTT assay.; format: functional; conditions: Homo sapiens, read-out: TC50 (the source's name)
Human rhinovirus sp. = test: Antiviral activity against human rhinovirus-14 in HeLa cells; format: functional, organism-based

Row | Compound | CC50 (HeLa) | IC50 (Human rhinovirus sp.)
1 | CS(=O)(=O)CC[C@@H](C=O)NC(=O)[C@H](Cc1ccccc1)NC(=O)OCc1ccccc1 | > 224 µM | 3.4 µM
2 | CC(C)C[C@H](NC(=O)OCc1ccccc1)C(=O)N[C@H](C=O)CCS(C)(=O)=O (Cbz-Leu-[Met(O2)]-aldehyde) | > 224 µM | 39.3 µM
3 | CC(=O)N[C@@H](CC(C)C)C(=O)N[C@@H](CC(C)C)C(=O)N[C@H](C=O)CCCNC(=N)N [LEUPEPTIN] | > 224 µM | > 224 µM
4 | CSCC[C@@H](C=O)NC(=O)[C@H](Cc1ccccc1)NC(=O)OC(C)(C)C (Boc-Phe-Met-aldehyde) | 65.4 µM | 84.1 µM
5 | CSCC[C@@H](C=O)NC(=O)[C@H](CC(C)C)NC(=O)[C@H](CC(C)C)NC(C)=O (Ac-Leu-Leu-Met-aldehyde) | 37.1 µM | 23.7 µM
6 | CSCC[C@@H](C=O)NC(=O)[C@H](Cc1ccccc1)NC(=O)OCc1ccccc1 (Cbz-Phe-Met-aldehyde) | 42.2 µM | 9.7 µM
7 | NC(=O)CC[C@@H](C=O)NC(=O)[C@H](Cc1ccccc1)NC(=O)OCc1ccccc1 | > 224 µM | 42 µM
8 | CSCC[C@@H](C=O)NC(=O)[C@H](CCc1ccccc1)NC(=O)OCc1ccccc1 (Cbz-[hPhe]-Met-aldehyde) | 13.5 µM | 20.3 µM
9 | CC(C)(C)OC(=O)N[C@@H](Cc1ccccc1)C(=O)N[C@H](C=O)CCS(C)(=O)=O (Boc-Phe-[Met(O2)]-aldehyde) | 148 µM | 71.3 µM
10 | CC(C)C[C@H](NC(=O)[C@@H](NC(=O)OC(C)(C)C)C(C)C)C(=O)N[C@@H](Cc1ccccc1)C(=O)N[C@H](C=O)CCC(N)=O (Boc-VLFQ-aldehyde) | 0.6 µM | 400 µM
11 | CCCC[C@@H](C=O)NC(=O)[C@H](CC(C)C)NC(=O)OCc1ccccc1 [CALPEPTIN] | 22.1 µM | 17.7 µM
12 | CC(=O)N[C@@H](CC(C)C)C(=O)N[C@@H](CC(C)C)C(=O)N[C@H](C=O)CCS(C)(=O)=O (Ac-Leu-Leu-[Met(O2)]-aldehyde) | > 224 µM | 81.9 µM
13 | CS(=O)(=O)CC[C@@H](C=O)NC(=O)[C@H](CCc1ccccc1)NC(=O)OCc1ccccc1 (Cbz-[hPhe]-[Met(O2)]-aldehyde) | 162 µM | 81.2 µM
14 | CSCC[C@@H](C=O)NC(=O)[C@H](CC(C)C)NC(=O)OCc1ccccc1 (Cbz-Leu-Met-aldehyde) | 83 µM | 46.8 µM
15 | CS(=O)(=O)CC[C@@H](C=O)NC(=O)C(Cc1ccccc1)NC(=O)OCc1ccccc1 (single isomer, unassigned) | > 224 µM | > 224 µM
